# Measurements: ChEMBL document CHEMBL2385073, “Synthesis and evaluation of cholecystokinin trimers: a multivalent approach to pancreatic cancer detection and treatment” (Bioorg Med Chem Lett, 2013)
# pIC50: −log10 of the molar value.
# Legend:
# Type in all cases: cell-based
# [1] = biological target: T1, Gastrin/cholecystokinin type B receptor (Homo sapiens) (UniProt P32239); assay: Displacement of Eu-DTPA-CCK8 from CCK2 receptor in HEK293 cells after 2 hrs by TRF assay relative to CCK4
# T1 sequence (whole entry): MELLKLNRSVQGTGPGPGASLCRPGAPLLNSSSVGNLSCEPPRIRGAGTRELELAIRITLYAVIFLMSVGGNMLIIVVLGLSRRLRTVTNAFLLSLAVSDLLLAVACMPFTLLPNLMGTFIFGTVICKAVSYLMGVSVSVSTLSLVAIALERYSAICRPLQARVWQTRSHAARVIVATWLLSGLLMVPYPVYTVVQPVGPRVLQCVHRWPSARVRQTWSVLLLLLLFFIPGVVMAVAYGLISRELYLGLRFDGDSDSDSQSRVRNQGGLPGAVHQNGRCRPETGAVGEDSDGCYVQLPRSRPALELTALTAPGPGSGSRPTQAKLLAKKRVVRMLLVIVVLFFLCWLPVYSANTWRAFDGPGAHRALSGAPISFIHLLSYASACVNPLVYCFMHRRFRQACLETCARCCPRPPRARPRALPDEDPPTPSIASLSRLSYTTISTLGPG
# [2] = biological target: T2, Gastrin/cholecystokinin type B receptor (Homo sapiens, UniProt P32239); assay: Displacement of Eu-DTPA-CCK8 from CCK2 receptor in HEK293 cells after 2 hrs by TRF assay
# T2 sequence (P32239 whole entry): T1 sequence (whole entry)
# Melanocortin receptor 4 = Melanocortin receptor 4 (Homo sapiens, UniProt P32245); assay: Binding affinity to MC4R in HEK293 cells
# Chain of Melanocortin receptor 4 (P32245 whole entry): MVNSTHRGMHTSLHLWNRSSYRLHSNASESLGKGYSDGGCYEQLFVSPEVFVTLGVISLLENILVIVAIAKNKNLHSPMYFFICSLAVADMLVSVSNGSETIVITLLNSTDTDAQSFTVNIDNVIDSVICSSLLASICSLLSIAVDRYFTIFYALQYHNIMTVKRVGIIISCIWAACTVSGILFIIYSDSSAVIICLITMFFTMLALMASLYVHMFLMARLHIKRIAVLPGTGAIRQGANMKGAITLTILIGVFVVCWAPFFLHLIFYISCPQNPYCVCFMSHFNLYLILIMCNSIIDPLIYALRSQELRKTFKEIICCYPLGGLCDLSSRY
fold change (FC) [1],pIC50 [2],pIC50 (Melanocortin receptor 4),SMILES
3,8.28,,C#CCCC(=O)NCCCC[C@H](NC(C)=O)C(=O)N[C@@H](Cc1c[nH]c2ccccc12)C(=O)N(C)[C@@H](CCCC)C(=O)N[C@@H](CC(=O)O)C(=O)N[C@@H](Cc1ccccc1)C(=O)Nc1cn(CC(=O)NCCC(=O)NCCCC(CCCNC(=O)CCNC(=O)Cn2cc(NC(=O)[C@H](Cc3ccccc3)NC(=O)[C@H](CC(=O)O)NC(=O)[C@H](CCCC)N(C)C(=O)[C@H](Cc3c[nH]c4ccccc34)NC(=O)[C@H](CCCCNC(=O)CCC#C)NC(C)=O)nn2)(NC(=O)CNC(=O)CCNC(=O)Cn2cc(NC(=O)[C@H](Cc3ccccc3)NC(=O)[C@H](CC(=O)O)NC(=O)[C@H](CCCC)N(C)C(=O)[C@H](Cc3c[nH]c4ccccc34)NC(=O)[C@H](CCCCNC(=O)CCC#C)NC(C)=O)nn2)C(=O)NCCC(N)=O)nn1
,7.80,,C#CCCC(=O)NCCCC[C@H](NC(C)=O)C(=O)N[C@@H](Cc1c[nH]c2ccccc12)C(=O)N(C)[C@@H](CCCC)C(=O)N[C@@H](CC(=O)O)C(=O)N[C@@H](Cc1ccccc1)C(N)=O
,,7.92,C#CCCC(=O)NCCCC[C@H](NC(C)=O)C(=O)N[C@@H](CO)C(=O)N[C@@H](CCCC)C(=O)N[C@@H](CCC(=O)O)C(=O)N[C@@H](Cc1cnc[nH]1)C(=O)N[C@H](Cc1ccccc1)C(=O)N[C@@H](CCCNC(=N)N)C(=O)N[C@@H](Cc1c[nH]c2ccccc12)C(=O)Nc1cn(CC(=O)NCCCC(CCCNC(=O)Cn2cc(NC(=O)[C@H](Cc3c[nH]c4ccccc34)NC(=O)[C@H](CCCNC(=N)N)NC(=O)[C@@H](Cc3ccccc3)NC(=O)[C@H](Cc3cnc[nH]3)NC(=O)[C@H](CCC(=O)O)NC(=O)[C@H](CCCC)NC(=O)[C@H](CO)NC(=O)[C@H](CCCCNC(=O)CCC#C)NC(C)=O)nn2)(NC(=O)CNC(=O)Cn2cc(NC(=O)[C@H](Cc3c[nH]c4ccccc34)NC(=O)[C@H](CCCNC(=N)N)NC(=O)[C@@H](Cc3ccccc3)NC(=O)[C@H](Cc3cnc[nH]3)NC(=O)[C@H](CCC(=O)O)NC(=O)[C@H](CCCC)NC(=O)[C@H](CO)NC(=O)[C@H](CCCCNC(=O)CCC#C)NC(C)=O)nn2)C(=O)NCCC(N)=O)nn1 (stereo not given in full)
2,8.07,,C#CCCC(=O)NCCCC[C@H](NC(C)=O)C(=O)N[C@@H](Cc1c[nH]c2ccccc12)C(=O)N(C)[C@@H](CCCC)C(=O)N[C@@H](CC(=O)O)C(=O)N[C@@H](Cc1ccccc1)C(=O)Nc1cn(CC(=O)NCCC(=O)NCCC(=O)NCCCC(CCCNC(=O)CCNC(=O)CCNC(=O)Cn2cc(NC(=O)[C@H](Cc3ccccc3)NC(=O)[C@H](CC(=O)O)NC(=O)[C@H](CCCC)N(C)C(=O)[C@H](Cc3c[nH]c4ccccc34)NC(=O)[C@H](CCCCNC(=O)CCC#C)NC(C)=O)nn2)(NC(=O)CNC(=O)CCNC(=O)CCNC(=O)Cn2cc(NC(=O)[C@H](Cc3ccccc3)NC(=O)[C@H](CC(=O)O)NC(=O)[C@H](CCCC)N(C)C(=O)[C@H](Cc3c[nH]c4ccccc34)NC(=O)[C@H](CCCCNC(=O)CCC#C)NC(C)=O)nn2)C(=O)NCCC(N)=O)nn1
2.5,8.22,,C#CCCC(=O)NCCCC[C@H](NC(C)=O)C(=O)N[C@@H](Cc1c[nH]c2ccccc12)C(=O)N(C)[C@@H](CCCC)C(=O)N[C@@H](CC(=O)O)C(=O)N[C@@H](Cc1ccccc1)C(=O)Nc1cn(CC(=O)NCC(=O)N2CCC[C@H]2C(=O)NCC(=O)NCCCC(CCCNC(=O)CNC(=O)[C@@H]2CCCN2C(=O)CNC(=O)Cn2cc(NC(=O)[C@H](Cc3ccccc3)NC(=O)[C@H](CC(=O)O)NC(=O)[C@H](CCCC)N(C)C(=O)[C@H](Cc3c[nH]c4ccccc34)NC(=O)[C@H](CCCCNC(=O)CCC#C)NC(C)=O)nn2)(NC(=O)CNC(=O)CNC(=O)[C@@H]2CCCN2C(=O)CNC(=O)Cn2cc(NC(=O)[C@H](Cc3ccccc3)NC(=O)[C@H](CC(=O)O)NC(=O)[C@H](CCCC)N(C)C(=O)[C@H](Cc3c[nH]c4ccccc34)NC(=O)[C@H](CCCCNC(=O)CCC#C)NC(C)=O)nn2)C(=O)NCCC(N)=O)nn1
1.5,7.92,,C#CCCC(=O)NCCCC[C@H](NC(C)=O)C(=O)N[C@@H](Cc1c[nH]c2ccccc12)C(=O)N(C)[C@@H](CCCC)C(=O)N[C@@H](CC(=O)O)C(=O)N[C@@H](Cc1ccccc1)C(=O)Nc1cn(CC(=O)NCCCC(CCCNC(=O)Cn2cc(NC(=O)[C@H](Cc3ccccc3)NC(=O)[C@H](CC(=O)O)NC(=O)[C@H](CCCC)N(C)C(=O)[C@H](Cc3c[nH]c4ccccc34)NC(=O)[C@H](CCCCNC(=O)CCC#C)NC(C)=O)nn2)(NC(=O)CNC(=O)Cn2cc(NC(=O)[C@H](Cc3ccccc3)NC(=O)[C@H](CC(=O)O)NC(=O)[C@H](CCCC)N(C)C(=O)[C@H](Cc3c[nH]c4ccccc34)NC(=O)[C@H](CCCCNC(=O)CCC#C)NC(C)=O)nn2)C(=O)NCCC(N)=O)nn1
